Test results from patent US5142051A, “N-phosphonylmethoxyalkyl derivatives of pyrimidine and purine bases and a therapeutical composition therefrom with antiviral activity” (Ceskoslovenska Akademie Ved, priority 1986, dated 1992).
Values after ≈ are worked out from the molar mass of the structure shown. Read-outs that look alike come from different tables or passages of the source.

Legend:
[1] = tested on: HSV-2 (196); assay: Inhibition of virus-induced cytopathic effect in PRK-cells, HSV-2 (196); assay type: cell-based; conditions: read-out: MIC50
[2] = tested on: HSV-1 (McIntyre); assay: Inhibition of virus-induced cytopathic effect in PRK-cells, HSV-1 (McIntyre); assay type: cell-based; conditions: read-out: MIC50
[3] = tested on: vaccinia virus (VV); assay: microbe, parasite or virus in culture; assay type: cell-based; conditions: Orthopoxvirus vaccinia, PRK, read-out: MIC50
[4] = tested on: HSV-1 TK^- (Field); assay: Inhibition of virus-induced cytopathic effect in PRK-cells, HSV-1 TK^- (Field); assay type: cell-based; conditions: Human alphaherpesvirus 1, PRK, read-out: MIC50
[5] = tested on: HSV-2 (G); assay: Inhibition of virus-induced cytopathic effect in PRK-cells, HSV-2 (G); assay type: cell-based; conditions: read-out: MIC50
[6] = tested on: HSV-2 (Lyons); assay: Inhibition of virus-induced cytopathic effect in PRK-cells, HSV-2 (Lyons); assay type: cell-based; conditions: read-out: MIC50
[7] = Cytotoxicity: observable morphological changes in uninfected tissue culture cells; conditions: rabbit, prk cells
[8] = tested on: HSV-1 (KOS); assay: Inhibition of virus-induced cytopathic effect in PRK-cells, HSV-1 (KOS); assay type: cell-based; conditions: read-out: MIC50
[9] = tested on: HSV-1 (F); assay: Inhibition of virus-induced cytopathic effect in PRK-cells, HSV-1 (F); assay type: cell-based; conditions: read-out: MIC50
[10] = tested on: HSV-1 TK^- (Cheng); assay: Inhibition of virus-induced cytopathic effect in PRK-cells, HSV-1 TK^- (Cheng); assay type: cell-based; conditions: Human alphaherpesvirus 1, PRK, read-out: MIC50
[11] = tested on: strains or mutants devoid of thymidine kinase; conditions: in words; cited from earlier work
[12] = tested on: vaccinia virus; assay type: cell-based; conditions: in words
[13] = tested on: TK^- mutants of herpes viruses type 1 and 2; assay: Antiviral effect against TK^- mutants of herpes viruses; assay type: cell-based; conditions: in words
[14] = tested on: DNA viruses; conditions: background statement, in words; cited from earlier work
[15] = in words; cited from earlier work
[16] = Human alphaherpesvirus 2, HSV-2 (196), PRK-cells, 50% inhibition of cytopathic effect
[17] = Human alphaherpesvirus 1, HSV-1 (McIntyre), PRK-cells, 50% inhibition of cytopathic effect
[18] = Human alphaherpesvirus 2, HSV-2 (G), PRK-cells, 50% inhibition of cytopathic effect
[19] = Human alphaherpesvirus 2, HSV-2 (Lyons), PRK-cells, 50% inhibition of cytopathic effect
[20] = Human alphaherpesvirus 1, HSV-1 (KOS), PRK-cells, 50% inhibition of cytopathic effect
[21] = Human alphaherpesvirus 1, HSV-1 (F), PRK-cells, 50% inhibition of cytopathic effect

SMILES | EC50 [1, 16] | EC50 [2, 17] | EC50 [3] | EC50 [4] | EC50 [5, 18] | EC50 [6, 19] | MCC [7] | EC50 [8, 20] | EC50 [9, 21] | also measured
NNc1ncnc2c1ncn2CC(CO)OCP(=O)(O)O (racemic) [6-Hydrazinopurin-9-yl, (RS)--CH2 OH] | 70 µg/mL (≈ 220 µM) | 70 µg/mL (≈ 220 µM) | 20 µg/mL (≈ 62.8 µM) | 40 µg/mL (≈ 126 µM) | 70 µg/mL (≈ 220 µM) | 70 µg/mL (≈ 220 µM) | 400 µg/mL | 150 µg/mL (≈ 471 µM) | 70 µg/mL (≈ 220 µM) | –
O=P(O)(O)COC(CO)Cn1cnc2c(NO)ncnc21 (racemic) [6-Hydroxylaminopurin-9-yl, (RS)--CH2 OH] | 20 µg/mL (≈ 62.7 µM) | 7 µg/mL (≈ 21.9 µM) | 7 µg/mL (≈ 21.9 µM) | – | 20 µg/mL (≈ 62.7 µM) | 20 µg/mL (≈ 62.7 µM) | 400 µg/mL | 20 µg/mL (≈ 62.7 µM) | 20 µg/mL (≈ 62.7 µM) | –
Nc1nc2c(ncn2CC(CO)OCP(=O)(O)O)c(=O)[nH]1 (racemic) [Guanin-9-yl, (RS)--CH2 OH] | 20 µg/mL (≈ 62.7 µM) | 2 µg/mL (≈ 6.27 µM) | 2 µg/mL (≈ 6.27 µM) | 10 µg/mL (≈ 31.3 µM) | 20 µg/mL (≈ 62.7 µM) | 20 µg/mL (≈ 62.7 µM) | 400 µg/mL | 20 µg/mL (≈ 62.7 µM) | 7 µg/mL (≈ 21.9 µM) | –
Nc1nc(N)c2ncn(C[C@@H](CO)OCP(=O)(O)O)c2n1 [2-Aminoadenin-9-yl, (S)--CH2 OH] | 7 µg/mL (≈ 22 µM) | 2 µg/mL (≈ 6.28 µM) | 0.7 µg/mL (≈ 2.2 µM) | – | 4 µg/mL (≈ 12.6 µM) | 7 µg/mL (≈ 22 µM) | 200 µg/mL | 20 µg/mL (≈ 62.8 µM) | 7 µg/mL (≈ 22 µM) | –
Nc1nc(N)c2ncn(CCOCP(=O)(O)O)c2n1 [2-Aminoadenin-9-yl, H] | 2 µg/mL (≈ 6.94 µM) | 2 µg/mL (≈ 6.94 µM) | 70 µg/mL (≈ 243 µM) | – | 2 µg/mL (≈ 6.94 µM) | 2 µg/mL (≈ 6.94 µM) | 200 µg/mL | 7 µg/mL (≈ 24.3 µM) | 2 µg/mL (≈ 6.94 µM) | –
Nc1ncc2ncn(CCOCP(=O)(O)O)c2n1 [2-Aminopurin-9-yl, H] | 20 µg/mL (≈ 73.2 µM) | 70 µg/mL (≈ 256 µM) | 200 µg/mL (≈ 732 µM) | 150 µg/mL (≈ 549 µM) | 20 µg/mL (≈ 73.2 µM) | 7 µg/mL (≈ 25.6 µM) | 200 µg/mL | 70 µg/mL (≈ 256 µM) | 70 µg/mL (≈ 256 µM) | EC50 [10]: 150 µg/mL (≈ 549 µM)
Nc1nccc2c1ncn2C[C@@H](CO)OCP(=O)(O)O [3-Deazaadenin-9-yl, (S)--CH2 OH] | 0.7 µg/mL (≈ 2.32 µM) | 0.7 µg/mL (≈ 2.32 µM) | – | – | 0.1 µg/mL (≈ 0.331 µM) | 0.2 µg/mL (≈ 0.662 µM) | 40 µg/mL | 0.2 µg/mL (≈ 0.662 µM) | 0.2 µg/mL (≈ 0.662 µM) | –
O=c1[nH]c(=O)n([C@H]2C[C@H](O)[C@@H](CO)O2)cc1C=CBr [5-(2-Bromovinyl)-2'-deoxyuridine, 5-(2-bromovinyl)-2' -deoxyuridine, reference compound] | – | – | 7 µg/mL (≈ 21 µM) | – | – | – | 400 µg/mL | – | – | EC50 ([1]; Human alphaherpesvirus 2, PRK): 1 µg/mL (≈ 3 µM); EC50 ([2]; Human alphaherpesvirus 1, PRK): 0.02 µg/mL (≈ 0.06 µM); EC50 ([5]; Human alphaherpesvirus 2, PRK): 4 µg/mL (≈ 12 µM); EC50 ([6]; Human alphaherpesvirus 2, PRK): 10 µg/mL (≈ 30 µM); sensitivity of strains or mutants devoid of thymidine kinase [11]: usually also resistant; EC50 ([8]; Human alphaherpesvirus 1, PRK): 0.02 µg/mL (≈ 0.06 µM); EC50 ([9]; Human alphaherpesvirus 1, PRK): 0.02 µg/mL (≈ 0.06 µM)
Nc1ncnc2c1ncn2C[C@@H](CO)OCP(=O)(O)O [Adenin-9-yl, (S)--CH2 OH, 9-(S)-(2-phosphonylmethoxy-3-hydroxypropyl)adenine, reference compound] | 7 µg/mL (≈ 23.1 µM) | 1 µg/mL (≈ 3.3 µM) | 7 µg/mL (≈ 23.1 µM) | – | 20 µg/mL (≈ 66 µM) | 20 µg/mL (≈ 66 µM) | 100 µg/mL | 20 µg/mL (≈ 66 µM) | 7 µg/mL (≈ 23.1 µM) | effect against vaccinia virus [12]: highly effective; effect against TK^- mutants of herpes viruses type 1 and 2 [13]: highly effective; antiviral activity [14]: very potent antivirals, acting specifically against DNA viruses; effect where Zovirax, DHPG fail [11]: effective even in those cases where the above-mentioned drugs fail
Nc1ccn(C[C@@H](CO)OCP(=O)(O)O)c(=O)n1 [Cytosin-1-yl, (S)--CH2 OH] | – | – | 0.2 µg/mL (≈ 0.716 µM) | 7 µg/mL (≈ 25.1 µM) | – | – | 100 µg/mL | – | – | EC50 ([1]; Human alphaherpesvirus 2, PRK): 2 µg/mL (≈ 7.16 µM); EC50 [10]: 10 µg/mL (≈ 35.8 µM); EC50 ([2]; Human alphaherpesvirus 1, PRK): 1 µg/mL (≈ 3.58 µM); EC50 ([5]; Human alphaherpesvirus 2, PRK): 20 µg/mL (≈ 71.6 µM); EC50 ([6]; Human alphaherpesvirus 2, PRK): 20 µg/mL (≈ 71.6 µM); EC50 ([8]; Human alphaherpesvirus 1, PRK): 7 µg/mL (≈ 25.1 µM); EC50 ([9]; Human alphaherpesvirus 1, PRK): 2 µg/mL (≈ 7.16 µM)
Nc1nc2c(ncn2COC(CO)CO)c(=O)[nH]1 [DHPG, 9-(1,3-dihydroxy-2-propoxymethyl)guanine] | – | – | – | – | – | – | – | – | – | water-solubility [15]: low water-solubility; sensitivity of strains or mutants devoid of thymidine kinase [11]: not sensitive
Nc1nc2c(ncn2CCOCP(=O)(O)O)c(=O)[nH]1 [Guanin-9-yl, H] | 2 µg/mL (≈ 6.92 µM) | 2 µg/mL (≈ 6.92 µM) | 7 µg/mL (≈ 24.2 µM) | – | 4 µg/mL (≈ 13.8 µM) | 7 µg/mL (≈ 24.2 µM) | 40 µg/mL | 7 µg/mL (≈ 24.2 µM) | 2 µg/mL (≈ 6.92 µM) | –
Nc1ncnc2c1ncn2CCOCP(=O)(O)O [PMEA, 9-(2-phosphonylmethoxyethyl)adenine] | – | – | – | – | – | – | – | – | – | effect against vaccinia virus [12]: highly effective; effect against TK^- mutants of herpes viruses type 1 and 2 [13]: highly effective; antiviral activity [14]: very potent antivirals, acting specifically against DNA viruses; effect where Zovirax, DHPG fail [11]: effective even in those cases where the above-mentioned drugs fail
Cc1cn(C[C@@H](CO)OCP(=O)(O)O)c(=O)[nH]c1=O [Thymin-1-yl, (S)--CH2 OH] | 150 µg/mL (≈ 510 µM) | 70 µg/mL (≈ 238 µM) | 300 µg/mL (≈ 1020 µM) | 200 µg/mL (≈ 680 µM) | 20 µg/mL (≈ 68 µM) | 70 µg/mL (≈ 238 µM) | 400 µg/mL | 70 µg/mL (≈ 238 µM) | 150 µg/mL (≈ 510 µM) | EC50 [10]: 400 µg/mL (≈ 1360 µM)
Nc1nc2c(ncn2COCCO)c(=O)[nH]1 [Zovirax] | – | – | – | – | – | – | – | – | – | sensitivity of strains or mutants devoid of thymidine kinase [11]: not sensitive
